In patent publication US9458176B2, “Tetrahydroimidazo(1,5-D)[1,4]oxazepine derivative” (Eisai R&D Management Co., Ltd., priority 2013, dated 2016) one finds IC50 data, which are given here for 67 molecules.

By IC50 is commonly meant the concentration needed to halve the response being measured. Higher therefore signals weaker potency in that assay.

In one test the target is human mGluR2 (Homo sapiens (Human), UniProt Q14416). Kind of test: [35S]GTPγS binding assay (Affinity to mGluR2). Type of test: biochemical. The note with it: cell membrane fraction of HEK293 cells stably expressing human mGluR2; glutamic acid 10 μM. In short, it runs like this: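 Membranes from HEK293 cells stably co-expressing human mGluR2 and SLC1A3 (1.8–3 μg protein) preincubated with compound 30 min at RT, then stimulated with 10 μM glutamate 15 min; [35S]GTPγS (0.8 kBq) with WGA-SPA beads 1 h, buffer with 3 μM GDP, 100 mM NaCl, 1 mM MgCl2. IC50 from inhibition of glutamate-specific binding.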
human mGluR2, sequence (Q14416 19-872): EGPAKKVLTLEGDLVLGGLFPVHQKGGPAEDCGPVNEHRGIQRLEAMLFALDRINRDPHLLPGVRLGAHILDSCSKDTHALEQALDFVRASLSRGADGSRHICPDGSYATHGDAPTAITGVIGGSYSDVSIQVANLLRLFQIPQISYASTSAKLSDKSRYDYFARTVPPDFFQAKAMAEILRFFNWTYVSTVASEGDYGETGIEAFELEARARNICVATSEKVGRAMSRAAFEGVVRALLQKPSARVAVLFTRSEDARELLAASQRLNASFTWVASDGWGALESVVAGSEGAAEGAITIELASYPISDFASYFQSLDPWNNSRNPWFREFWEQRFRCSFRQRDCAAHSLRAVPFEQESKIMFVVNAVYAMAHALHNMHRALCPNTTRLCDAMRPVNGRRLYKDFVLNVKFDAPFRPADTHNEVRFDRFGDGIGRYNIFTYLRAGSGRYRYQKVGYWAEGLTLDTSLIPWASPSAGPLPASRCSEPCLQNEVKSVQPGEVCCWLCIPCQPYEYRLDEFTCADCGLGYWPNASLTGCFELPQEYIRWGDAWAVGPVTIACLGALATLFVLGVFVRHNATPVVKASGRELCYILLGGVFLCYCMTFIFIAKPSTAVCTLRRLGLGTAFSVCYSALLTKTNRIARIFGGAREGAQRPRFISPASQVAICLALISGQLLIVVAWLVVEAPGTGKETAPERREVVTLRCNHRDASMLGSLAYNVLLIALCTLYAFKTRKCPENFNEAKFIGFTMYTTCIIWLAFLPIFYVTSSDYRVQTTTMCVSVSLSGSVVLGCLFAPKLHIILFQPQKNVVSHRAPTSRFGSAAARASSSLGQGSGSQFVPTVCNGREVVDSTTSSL
Background: GTPγS resists hydrolysis and so accumulates on activated G proteins.
`Cc1cc(-c2nc(-c3ccc(Cl)c(C(F)F)c3)n3c2CCO[C@H](C)C3)cc(C)n1` [Example 131] came in with an IC50 of 25.5 nM.

`Cc1cc(-c2nc(-c3ccc(C(F)(F)F)c(Cl)c3)n3c2CCO[C@H](C)C3)ccn1` [Example 132]: the IC50 came out at 33.3 nM.

In turn, `Cc1cc(-c2nc(-c3ccc(OC(F)(F)F)c(Cl)c3)n3c2CCO[C@H](C)C3)cc(C)n1` [Example 133] yielded an IC50 of 4.4 nM.

The molecule `Cc1cc(-c2nc(-c3ccc(C(F)(F)F)c(F)c3)n3c2CCO[C@H](C)C3)cc(C)n1` [Example 134] displayed an IC50 of 27.8 nM.

In the case of `Cc1cc(-c2nc(-c3ccc(OC4CC4)c(Cl)c3)n3c2CCOCC3)cc(C)n1` [Example 135], the concentration for half-maximal inhibition (IC50) was found to be 36.9 nM.

Molecule `COc1cc(-c2nc(-c3cc(C)nc(C)c3)c3n2C[C@@H](C)OCC3)ccc1F` [Example 136] gave an IC50 of 33.9 nM.

As to `Cc1cc(-c2nc(-c3ccc(C(F)F)c(Cl)c3)n3c2CCOCC3)cc(C)n1` [Example 137], the IC50 was found to be 18.7 nM.

`Cc1cc(-c2nc(-c3ccc(F)c(Cl)c3)n3c2CCO[C@H](C)C3)cc(C)n1` [Example 138] returned a 50% inhibitory concentration (IC50) of 21.2 nM.

`Cc1cc(-c2nc(-c3ccc(C(F)(F)F)c(F)c3)n3c2CCO[C@H](C)C3)ccn1` [Example 139] displayed an IC50 of 47.5 nM.

For `Cc1cc(-c2nc(-c3ccc(Cl)c(C(F)(F)F)c3)n3c2CCO[C@H](C)C3)cc(C)n1` [Example 140], the IC50 worked out at 5.7 nM.

Staying with this test, now noted: cell membrane fraction of HEK293 cells stably expressing human mGluR2; glutamic acid 10 μM; inhibition of specific [35S]GTPγS binding.
Regarding `COc1cc(-c2nc(-c3ccnc(C)c3)c3n2C[C@@H](C)OCC3)ccc1F` [Example 141], the IC50 came out at 51.9 nM.

`Cc1cc(-c2nc(-c3ccc(C(F)(F)F)cc3)n3c2CCO[C@H](C)C3)cc(C)n1` [Example 142] showed a 50% inhibitory concentration (IC50) of 20.2 nM.

`Cc1cc(-c2nc(-c3ccc(F)c(C(F)(F)F)c3)n3c2CCO[C@H](C)C3)cc(C)n1` [Example 143]: the IC50 amounted to 13.6 nM.

On to `Cc1cc(-c2nc(-c3ccc(OC4CC4)c(OC(F)(F)F)c3)n3c2CCOCC3)cc(C)n1` [Example 144], for which the half-maximal inhibitory concentration (IC50) was found to be 27.7 nM.

In turn, `Cc1cc(-c2nc(-c3ccc(F)c(Cl)c3)n3c2CCO[C@H](C)C3)ccn1` [Example 145] displayed a concentration for half-maximal inhibition (IC50) of 45.5 nM.

For `Cc1cc(-c2nc(-c3ccc(C(F)F)c(Cl)c3)n3c2CCO[C@H](C)C3)cc(C)n1` [Example 146], the concentration for half-maximal inhibition (IC50) is 22.2 nM.

Regarding `Cc1cc(-c2nc(-c3ccc(OC(F)(F)F)c(F)c3)n3c2CCO[C@H](C)C3)cc(C)n1` [Example 147], the IC50 came to 10.5 nM.

The molecule `COc1cc(-c2nc(-c3cc(C)nc(C)c3)c3n2C[C@@H](C)OCC3)ccc1OC(F)F` [Example 148] showed a concentration for half-maximal inhibition (IC50) of 9.6 nM.

`COc1cc(-c2nc(-c3ccnc(C)c3)c3n2C[C@@H](C)OCC3)ccc1OC(F)F` [Example 149]: the half-maximal inhibitory concentration (IC50) was 18.9 nM.

In the case of `Cc1cc(-c2nc(-c3ccc(F)c(C(F)(F)F)c3)n3c2CCO[C@H](C)C3)ccn1` [Example 151], the 50% inhibitory concentration (IC50) turned out to be 26.4 nM.

Take `Cc1cc(-c2nc(-c3ccc(Cl)c(C(F)(F)F)c3)n3c2CCO[C@H](C)C3)ccn1` [Example 152]: the IC50 worked out at 14.5 nM.

`Cc1cc(-c2nc(-c3ccc(OC(F)(F)F)c(Cl)c3)n3c2CCO[C@H](C)C3)ccn1` [Example 153]: the concentration for half-maximal inhibition (IC50) is 3 nM.

`COc1ccc(-c2nc(-c3cc(C)nc(C)c3)c3n2C[C@@H](C)OCC3)cc1OC(F)(F)F` [Example 154] came in with an IC50 of 6.7 nM.

`COc1ccc(-c2nc(-c3ccnc(C)c3)c3n2C[C@@H](C)OCC3)cc1OC(F)(F)F` [Example 155] yielded a concentration for half-maximal inhibition (IC50) of 19.2 nM.

`COc1cc(-c2nc(-c3cc(C)nc(CO)c3)c3n2C[C@@H](CF)OCC3)ccc1C(F)(F)F` [Example 156] had an IC50 of 7.3 nM.

Molecule `Cc1cc(-c2nc(-c3ccc(F)c(OC(F)(F)F)c3)n3c2CCO[C@H](C)C3)cc(C)n1` [Example 157] yielded a concentration for half-maximal inhibition (IC50) of 12.7 nM.

`Cc1cc(-c2nc(-c3ccc(F)c(OC(F)(F)F)c3)n3c2CCO[C@H](C)C3)ccn1` [Example 158] displayed a 50% inhibitory concentration (IC50) of 44.6 nM.

`Cc1cc(-c2nc(-c3ccc(OC4CC4)c(Cl)c3)n3c2CCO[C@H](C)C3)ccn1` [Example 159]: the concentration for half-maximal inhibition (IC50) was 5 nM.

Consider `COc1cc(-c2nc(-c3ccnc(C)c3)c3n2C[C@@H](CF)OCC3)ccc1C(F)F` [Example 160], for which the IC50 came to 24.1 nM.

In the case of `Cc1cc(-c2nc(-c3ccc(OC(F)(F)F)c(C)c3)n3c2CCO[C@H](CF)C3)cc(C)n1` [Example 161], the IC50 was found to be 4 nM.

Regarding `Cc1cc(-c2nc(-c3ccc(OC(F)(F)F)c(C)c3)n3c2CCO[C@H](CF)C3)ccn1` [Example 162], the IC50 was 5 nM.

The molecule `COc1cc(-c2nc(-c3cc(C)nc(C)c3)c3n2C[C@@H](CF)OCC3)ccc1OC(F)F` [Example 163] showed a 50% inhibitory concentration (IC50) of 15.8 nM.

Regarding `COc1cc(-c2nc(-c3ccnc(C)c3)c3n2C[C@@H](CF)OCC3)ccc1OC(F)F` [Example 164], the concentration for half-maximal inhibition (IC50) is 36.8 nM.

`Cc1cc(-c2nc(-c3ccc(OC(F)(F)F)c(F)c3)n3c2CCO[C@H](CF)C3)cc(C)n1` [Example 165] had a half-maximal inhibitory concentration (IC50) of 9.4 nM.

As to `Cc1cc(-c2nc(-c3ccc(OC(F)(F)F)c(F)c3)n3c2CCO[C@H](CF)C3)ccn1` [Example 166], the IC50 came to 15.2 nM.

Molecule `Cc1cc(-c2nc(-c3ccc(OC4CC4)c(Cl)c3)n3c2CCO[C@H](CF)C3)cc(C)n1` [Example 167] displayed a half-maximal inhibitory concentration (IC50) of 1.8 nM.

In the case of `Cc1cc(-c2nc(-c3ccc(OC(F)(F)F)c(C#N)c3)n3c2CCO[C@H](C)C3)cc(C)n1` [Example 168], the concentration for half-maximal inhibition (IC50) worked out at 4.2 nM.

As for `Cc1cc(-c2nc(-c3ccc(OC(F)(F)F)c(C#N)c3)n3c2CCO[C@H](C)C3)ccn1` [Example 169], the half-maximal inhibitory concentration (IC50) is 4.6 nM.

Consider `Cc1cc(-c2nc(-c3ccc(OC(F)(F)F)c(F)c3)n3c2CCO[C@H](CF)C3)cc(CO)n1` [Example 170], for which the IC50 was 43.1 nM.

In turn, `Cc1cc(-c2nc(-c3ccc(F)c(Cl)c3)n3c2CCO[C@H](CF)C3)cc(C)n1` [Example 171] displayed an IC50 of 26.7 nM.

The molecule `Cc1cc(-c2nc(-c3ccc(F)c(Cl)c3)n3c2CCO[C@H](CF)C3)ccn1` [Example 172] showed an IC50 of 38.3 nM.

Turning to `Cc1cc(-c2nc(-c3ccc(F)c(C(F)(F)F)c3)n3c2CCO[C@H](CF)C3)cc(C)n1` [Example 173], the IC50 was 19.2 nM.

`Cc1cc(-c2nc(-c3ccc(F)c(C(F)(F)F)c3)n3c2CCO[C@H](CF)C3)ccn1` [Example 174] came in with an IC50 of 24.3 nM.

Molecule `COc1ccc(-c2nc(-c3cc(C)nc(C)c3)c3n2C[C@@H](CF)OCC3)cc1OC(F)(F)F` [Example 175] displayed an IC50 of 18.5 nM.

Molecule `COc1cc(-c2nc(-c3cc(C)nc(C(F)F)c3)c3n2C[C@@H](CF)OCC3)ccc1Cl` [Example 176] came in with an IC50 of 38.8 nM.

`Cc1cc(-c2nc(-c3ccc(OC(F)F)c(C)c3)n3c2CCO[C@H](C)C3)cc(CO)n1` [Example 177]: the half-inhibitory concentration (IC50) came to 29.4 nM.

`COc1ccc(-c2nc(-c3cc(C)nc(C(F)F)c3)c3n2C[C@@H](C)OCC3)cc1C` [Example 178]: the concentration for half-maximal inhibition (IC50) stood at 17.8 nM.

As to `Cc1cc(-c2nc(-c3ccc(OC(F)(F)F)c(C)c3)n3c2CCO[C@H](C)C3)cc(CO)n1` [Example 179], the 50% inhibitory concentration (IC50) amounted to 17.9 nM.

Molecule `Cc1cc(-c2nc(-c3ccc(OC(F)(F)F)c(F)c3)n3c2CCO[C@H](C)C3)cc(CO)n1` [Example 180] returned an IC50 of 100 nM.

In turn, `Cc1cc(-c2nc(-c3ccc(OC(F)F)c(F)c3)n3c2CCO[C@H](C)C3)cc(C)n1` [Example 181] came in with a 50% inhibitory concentration (IC50) of 16.1 nM.

In turn, `Cc1cc(-c2nc(-c3ccc(OC(F)F)c(F)c3)n3c2CCO[C@H](C)C3)ccn1` [Example 182] gave an IC50 of 19.3 nM.

Turning to `Cc1cc(-c2nc(-c3ccc(C)c(C(F)(F)F)c3)n3c2CCO[C@H](C)C3)cc(C)n1` [Example 183], the IC50 worked out at 7.4 nM.

`Cc1cc(-c2nc(-c3ccc(F)c(OC(F)F)c3)n3c2CCO[C@H](C)C3)cc(C)n1` [Example 184] yielded a 50% inhibitory concentration (IC50) of 13.7 nM.

Turning to `Cc1cc(-c2nc(-c3ccc(F)c(OC(F)F)c3)n3c2CCO[C@H](C)C3)ccn1` [Example 185], the IC50 was determined as 19.5 nM.

`Cc1cc(-c2nc(-c3ccc(C(F)(F)F)c(C)c3)n3c2CCO[C@H](CF)C3)cc(C)n1` [Example 186]: the IC50 is 19.3 nM.

Turning to `Cc1cc(-c2nc(-c3ccc(C(F)(F)F)c(C)c3)n3c2CCO[C@H](CF)C3)ccn1` [Example 187], the IC50 worked out at 19.3 nM.

With `Cc1cc(-c2nc(-c3ccc(OC(F)F)c(C)c3)n3c2CCO[C@H](CF)C3)cc(C(F)F)n1` [Example 188], the IC50 amounted to 20.8 nM.

As to `COc1cc(-c2nc(-c3cc(C)nc(C(F)F)c3)c3n2C[C@@H](C)OCC3)ccc1C(F)F` [Example 189], the IC50 was found to be 15.1 nM.

In turn, `COc1ccc(-c2nc(-c3cc(C)nc(C(F)F)c3)c3n2C[C@@H](C)OCC3)cc1Cl` [Example 190] had an IC50 of 42.2 nM.

In the case of `COc1cc(-c2nc(-c3cc(C)nc(C(F)F)c3)c3n2C[C@@H](C)OCC3)ccc1OC(F)F` [Example 192], the IC50 was found to be 5 nM.

Molecule `COc1cc(-c2nc(-c3cc(C)nc(C(F)F)c3)c3n2C[C@@H](CF)OCC3)ccc1OC(F)F` [Example 193] showed an IC50 of 9 nM.

On to `COc1cc(-c2nc(-c3cc(C)nc(CO)c3)c3n2C[C@@H](CF)OCC3)ccc1OC(F)F` [Example 194], for which the IC50 was 108 nM.

Molecule `Cc1cc(-c2nc(-c3ccc(OC(F)(F)F)c(C#N)c3)n3c2CCO[C@H](CF)C3)cc(C)n1` [Example 195] yielded an IC50 of 3.7 nM.

`Cc1cc(-c2nc(-c3ccc(OC(F)(F)F)c(C#N)c3)n3c2CCO[C@H](CF)C3)ccn1` [Example 196] registered a half-inhibitory concentration (IC50) of 3.8 nM.

In the case of `Cc1cc(-c2nc(-c3ccc(C(F)F)c(Cl)c3)n3c2CCO[C@H](CF)C3)cc(C)n1` [Example 197], the IC50 came out at 15.1 nM.

Take `Cc1cc(-c2nc(-c3ccc(OC(F)(F)F)c(C)c3)n3c2CCOCC3)cc(CF)n1` [Example 198]: the concentration for half-maximal inhibition (IC50) was found to be 13.2 nM.

The molecule `Cc1cc(-c2nc(-c3ccc(OC(F)F)c(C)c3)n3c2CCO[C@H](C)C3)cc(CF)n1` [Example 199] displayed an IC50 of 5.2 nM.
